Active and inactive are the calls of the source.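 How the source made its calls: active means fitted curve falls past a set limit of signal loss at no more than twice the top dose; inconclusive means flat fit between 30 and 70% signal loss, or poor fit; inactive means signal rise, flat within 30%, or crossing too high.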
Experiment: ATP-based viability loss in HEK293T cells – cell-based, CellTiter-Glo luminescence, cherry-pick, set 3, cytotoxicity control, dose response (AID 720588)
Settings: HEK293T viability, CellTiter-Glo ATP luminescence, 72 h; at 21 µM (top of the series)
With Cc1ccc(S(=O)(=O)N(C)C[C@@H]2Oc3ccc(NC(=O)CCCCCC(=O)Nc4ccccc4N)cc3CC(=O)N([C@@H](C)CO)C[C@@H]2C)cc1 the activity change, negative = cytotoxicity was 3.82% (inactive). With COc1ccc(S(=O)(=O)Nc2cccc3c2O[C@H](CN(C)Cc2ccc(C(=O)Nc4ccccc4N)cc2)[C@H](C)CN([C@@H](C)CO)C3=O)cc1 the activity change, negative = cytotoxicity was -18.8% (inactive).

Same assay, conditions: HEK293T viability, CellTiter-Glo ATP luminescence, 72 h; at 26 µM (top of the series)
In the case of OC[C@H]1O[C@@H](n2cnc3c(NCc4ccco4)ncnc32)[C@H](O)[C@@H]1O, the activity change, negative = cytotoxicity is reported as -42.7% (inactive). With O=C1NC2C(=CC(O)C(O)C2O)c2cc3c(cc21)OCO3 (configuration not stated) the activity change, negative = cytotoxicity was -41.4% (inactive). In the case of Cc1occc1-c1n[nH]c(=S)n1C, the activity change, negative = cytotoxicity is reported as -10.6% (inactive). In the case of CCOc1cc2[nH]c(=S)n(Cc3ccc(C(=O)NCCN(CC)CC)cc3)c(=O)c2cc1OCC, the activity change, negative = cytotoxicity is reported as -4.81% (inactive). For CCOC(=O)Cc1ccc(NC(=O)c2ccccc2Br)cc1, the activity change, negative = cytotoxicity was -14.3% (inactive). With C(=C\c1ccc(C2[C@H]3CNC[C@@H]2N3Cc2ccccn2)cc1)/c1ccccc1 (some centres not stated) the activity change, negative = cytotoxicity was 39.5% (inactive). For CCOc1ccc(-c2cc(CCCC(=O)N3CCN(c4ccc(OC)cc4)CC3)no2)cc1, the activity change, negative = cytotoxicity was -8.72% (inactive). With COCc1cc(C)nc2sc(C(=O)NCCO)c(-n3cccc3)c12 the activity change, negative = cytotoxicity was 12.7% (inactive). For COc1ccc(C(=O)OCC(=O)Nc2ccc(Cl)c(C(F)(F)F)c2)c(OC)c1OC, the activity change, negative = cytotoxicity was 6.28% (inactive). For C[C@H](CO)N1C[C@H](C)[C@@H](CN(C)Cc2ccc(Oc3ccccc3)cc2)Oc2ccc(NS(=O)(=O)c3ccc(Cl)cc3)cc2CC1=O, the activity change, negative = cytotoxicity was -17.7% (inactive). For Cc1[nH][nH]c(=O)c1C(c1c(C)[nH][nH]c1=O)c1cn(Cc2ccc(Cl)c(Cl)c2)c2ccccc12, the activity change, negative = cytotoxicity was -16% (inactive). For COc1cc(OC)cc(-c2cc3nc(C)c(CCC(=O)O)c(C)n3n2)c1, the activity change, negative = cytotoxicity was 11.4% (inactive). With CCc1ccc2oc(C(=O)N3CCN(c4ccccc4OC)CC3)cc(=O)c2c1 the activity change, negative = cytotoxicity was -13.2% (inactive). For Cc1ccc(OCCNC(=O)c2cccc(S(=O)(=O)NCc3ccccc3)c2)cc1, the activity change, negative = cytotoxicity was 12.3% (inactive). With Nc1ccc2oc(-c3cc(Br)ccc3Cl)nc2c1 the activity change, negative = cytotoxicity was 19.3% (inactive). In the case of CCOc1ccccc1CNC(=O)c1ccc(Sc2ccc(Cl)cc2)c(NC(C)=O)c1, the activity change, negative = cytotoxicity is reported as -4.6% (inactive). With Cc1cccc(N2CCN(C3C(=O)Nc4ccccc4-n4nnnc43)CC2)c1C (configuration not stated) the activity change, negative = cytotoxicity was -24.4% (inactive). For OCCN1CCN(C(=S)c2ccc(-c3ccccc3)cc2)CC1, the activity change, negative = cytotoxicity was -3.37% (inactive). With Cc1[nH]c(=S)sc1Cc1ccc(Cl)c(Cl)c1 the activity change, negative = cytotoxicity was 20.1% (inactive). In the case of Cc1ccccc1N=CC1=C(O)c2ccccc2C1=O, the activity change, negative = cytotoxicity is reported as 1.79% (inactive). In the case of Cc1cc(C(=O)NNC(=O)c2ccc(S(=O)(=O)N(C)C)cc2)c(C)o1, the activity change, negative = cytotoxicity is reported as -12.5% (inactive). With O=C(CCCN1C(=O)S/C(=C\c2ccccc2)C1=O)NNC(=O)c1ccccc1O the activity change, negative = cytotoxicity was -28.3% (inactive). With Cc1ccc(N=C2NC(=O)/C(=C\c3cccs3)S2)cc1C the activity change, negative = cytotoxicity was -13% (inactive). For C[C@@H]1CN([C@H](C)CO)S(=O)(=O)c2ccc(C#CC3CC3)cc2O[C@@H]1CN(C)Cc1ccccc1F, the activity change, negative = cytotoxicity was -30.1% (inactive). In the case of CCCN1C(=O)/C(=C/c2nc3ccccc3c(=O)[nH]2)c2ccccc21, the activity change, negative = cytotoxicity is reported as -9.06% (inactive). With C[C@@H]1CCCCO[C@H](CN(C)Cc2ccc(C(=O)Nc3ccccc3N)cc2)[C@@H](C)CN([C@@H](C)CO)C(=O)c2cc(NS(=O)(=O)c3ccc(Cl)cc3)ccc2O1 the activity change, negative = cytotoxicity was -25.9% (inactive). In the case of CC(C)(C)c1ccc(Cn2c(=O)cnc3ccccc32)cc1, the activity change, negative = cytotoxicity is reported as -33.1% (inactive). With Nc1nc(N)c2c(ccc3nccc32)[nH]1 the activity change, negative = cytotoxicity was -30.1% (inactive). With O=c1[nH]c(=O)n([C@H]2C[C@H](O)[C@@H](CO)O2)cc1C(F)(F)F the activity change, negative = cytotoxicity was -10.4% (inactive). In the case of COc1ccc(Cl)cc1S(=O)(=O)Nc1ccc2c(c1)n(C)c(=O)n2C, the activity change, negative = cytotoxicity is reported as -13.3% (inactive). For CC(C)CN(C(=O)CN1CCOCC1)c1c(N)n(CC(C)C)c(=O)[nH]c1=O, the activity change, negative = cytotoxicity was 6.36% (inactive). In the case of O=C(COC(=O)c1ccc[nH]c1=O)Nc1ccc(N2CCCCC2)cc1, the activity change, negative = cytotoxicity is reported as -10.3% (inactive). For COc1cc2oc3cc(C#Cc4ccc(N)cc4)ccc3c(=O)c2cc1OC, the activity change, negative = cytotoxicity was -4.88% (inactive). In the case of CCS(=O)(=O)N1Cc2ccccc2CC1C(=O)Nc1nnc(SCc2ccc(C#N)cc2)s1 (configuration not stated), the activity change, negative = cytotoxicity is reported as -8.94% (inactive). In the case of CCCNC(=O)N1[C@H](C#N)[C@H](c2ccc(C#Cc3ccc(F)cc3)cc2)[C@H]1CO, the activity change, negative = cytotoxicity is reported as 14.3% (inactive). For COc1cc(-c2noc(C)c2C#Cc2nccn2C)cc(OC)c1OC, the activity change, negative = cytotoxicity was -11% (inactive). With C[C@H](CO)N1C[C@H](C)[C@H](CN(C)Cc2ccc(C(=O)Nc3ccccc3N)cc2)Oc2ccc(NS(=O)(=O)c3cccs3)cc2C1=O the activity change, negative = cytotoxicity was -25.3% (inactive). In the case of C[C@@H]1CN([C@H](C)CO)C(=O)c2cc(NC(=O)CCCCCC(=O)Nc3ccccc3N)ccc2O[C@@H]1CN(C)Cc1ccc(Cl)c(Cl)c1, the activity change, negative = cytotoxicity is reported as -5.39% (inactive). For Cc1sc2nc(CN3CCC(C)CC3)nc(Cl)c2c1C, the activity change, negative = cytotoxicity was 5.44% (inactive). In the case of COC(=O)C[C@@H]1CC[C@@H]2[C@@H](COc3ccc(NC(=O)Nc4ccc(C#N)cc4)cc3C(=O)N2C)O1, the activity change, negative = cytotoxicity is reported as 47.6% (inactive). In the case of CCc1ccc(/C=C2\SC(=S)N(CCCC(=O)NCCCN3CCOCC3)C2=O)cc1, the activity change, negative = cytotoxicity is reported as -13.1% (inactive). In the case of COc1ccc(C/C(N)=N/OC(C)=O)cc1OC, the activity change, negative = cytotoxicity is reported as -1.12% (inactive). In the case of CCNC(=O)[C@@H]1[C@@H](CO)[C@@H]2Cn3c(ccc(C4=CCCCC4)c3=O)[C@H]1N2CC, the activity change, negative = cytotoxicity is reported as -16.5% (inactive). With O=C(Nc1ccc(NC(=O)c2cc3ccccc3o2)cc1)c1ccc2c(c1)OCCO2 the activity change, negative = cytotoxicity was 7.63% (inactive). For CN(c1ccc(NC(=O)CCc2c[nH]c3ccccc23)cc1)c1ccccn1, the activity change, negative = cytotoxicity was -4.8% (inactive). With COc1ccc(C2c3cc4c(cc3OC(NNC(N)=O)C2C)OCO4)cc1 (configuration not stated) the activity change, negative = cytotoxicity was -16.2% (inactive). For COc1ccc(C(CCNCc2ccc(OC(C)C)cc2)C(C)C)cc1 (configuration not stated), the activity change, negative = cytotoxicity was -12.5% (inactive). In the case of Cc1ccc2oc(/N=C(\N)NC(=O)C(C)(C)C)nc2c1, the activity change, negative = cytotoxicity is reported as -11% (inactive). With Cc1c(Cl)cccc1NC(=O)CCC(=O)N/N=C/c1ccc[nH]1 the activity change, negative = cytotoxicity was 12% (inactive). With COC(=O)Cc1[nH]n(-c2nc3ccccc3s2)c(=O)c1C(C)=Nc1ccc(C)cc1 the activity change, negative = cytotoxicity was -30% (inactive). For CCOc1ccc(OCc2ccc(C(=O)NN=Cc3ccc[nH]3)cc2)cc1, the activity change, negative = cytotoxicity was -39.9% (inactive). For Cc1ccccc1N=Nc1c(O)n(C)c2ccccc12, the activity change, negative = cytotoxicity was 2.96% (inactive). For COc1ccc(C2=Nn3c(nnc3-c3ccccc3OC)SC2)cc1OCC1CC1, the activity change, negative = cytotoxicity was -31.8% (inactive). With O=C(O)c1ccccc1C(=O)Nc1ccc(Oc2ccc3ccccc3c2)cc1 the activity change, negative = cytotoxicity was -15.8% (inactive). In the case of Cc1ccsc1C(=O)OCC(=O)c1cc(C)n(C)c1C, the activity change, negative = cytotoxicity is reported as -19.5% (inactive). For O=C(O)c1ccccc1C(=O)Nc1ccc(Oc2cccc3ccccc23)cc1, the activity change, negative = cytotoxicity was -24.2% (inactive). For O=C1Nc2ccccc2C1=Nc1ccccc1-c1ccccc1, the activity change, negative = cytotoxicity was -21.1% (inactive). With COC(=O)C[C@@H]1CC[C@@H]2[C@@H](COc3ccc(NC(=O)Cc4cccs4)cc3C(=O)N2C)O1 the activity change, negative = cytotoxicity was -8.47% (inactive). With CCN1CCN(/C=N/c2nc3c(s2)CCCC3)CC1 the activity change, negative = cytotoxicity was -6.91% (inactive). For Cc1ccc(NC(=O)CCN2CCCCC2)cc1, the activity change, negative = cytotoxicity was 17.2% (inactive). In the case of CC(C)(C)c1ccc(Oc2ccc(N)cn2)cc1, the activity change, negative = cytotoxicity is reported as -15.7% (inactive). With CCOc1ccc(C(c2c(NC(=O)c3ccccc3)sc(C)c2C)N2CCN(CCO)CC2)cc1 (configuration not stated) the activity change, negative = cytotoxicity was -15.2% (inactive). In the case of N#CC1=C(N)Oc2cc(N)ccc2C1c1cccc(Br)c1 (configuration not stated), the activity change, negative = cytotoxicity is reported as -22.2% (inactive). For N#Cc1cccc(-c2ccc(C3[C@@H]4CN(C(=O)Cc5ccncc5)C[C@H]3N4)cc2)c1 (some centres not stated), the activity change, negative = cytotoxicity was 35.3% (inactive). In the case of C#CCOCCOCCOCCNc1nc(N2CCN(C(=O)CCCCCCCCCCNC(=O)Cn3cc(C[C@@H](C)O)nn3)CC2)nc(N2CCN(C(=O)CCCCCCCCCCNC(=O)[C@H](CO)n3cc(CCCSC)nn3)CC2)n1, the activity change, negative = cytotoxicity is reported as 23.5% (inactive). With O=C(CCCCl)Nc1nc(-c2ccc3c(c2)OCCO3)cs1 the activity change, negative = cytotoxicity was 13.6% (inactive). For Cc1noc(C)c1C(=O)Nc1sccc1C(N)=O, the activity change, negative = cytotoxicity was 18% (inactive). With COc1cc(/C=N/NS(=O)(=O)c2ccc3ccccc3c2)ccc1OCc1ccc(C(=O)O)cc1 the activity change, negative = cytotoxicity was -17.5% (inactive). For C[C@@H]1CN([C@@H](C)CO)C(=O)c2cccc(NC(=O)Nc3ccccc3)c2O[C@@H]1CN(C)Cc1ccc(-c2ccccc2)cc1, the activity change, negative = cytotoxicity was -22.7% (inactive). For COc1ccccc1N(/N=C1\Sc2ccccc2C1=O)C(C)=O, the activity change, negative = cytotoxicity was -23.6% (inactive). With COC(=O)C(CC#Cc1ccc2c(c1)[C@]1(C(=O)N2)[C@H](c2ccc(OCCO)cc2)N2[C@H](c3ccccc3)[C@H](c3ccccc3)OC(=O)[C@H]2[C@@H]1C(=O)N1CCN(c2ncccn2)CC1)C(=O)OC the activity change, negative = cytotoxicity was 1.09% (inactive). For O=c1cc(CN2CCN(Cc3ccccc3)CC2)c2ccc(O)c(O)c2o1, the activity change, negative = cytotoxicity was 28.6% (inactive). In the case of CCOC(=O)c1c(-c2ccc(C)cc2)csc1NC(=O)CCN1CCOCC1, the activity change, negative = cytotoxicity is reported as 5.98% (inactive). In the case of COc1ccc(/C=C/C(=O)c2cc(F)ccc2OC(=O)c2ccccc2OC)cc1OC, the activity change, negative = cytotoxicity is reported as -12.6% (inactive). In the case of O=c1oc2cc(O)ccc2s1, the activity change, negative = cytotoxicity is reported as -7.52% (inactive).
